Test [1] deals with T1, Human indoleamine 2,3-dioxygenasae (IDO) (Homo sapiens, UniProt P14902).
T1 construct: His tag (N); made in house; host or cells: E. coli
As to the kind of experiment: Human indoleamine 2,3-dioxygenase (IDO) enzyme assay. The format is biochemical. The note with it: 95 nM IDO, 2 mM D-Trp, pH 6.5, room temperature. As for the experimental part:
Human indoleamine 2,3-dioxygenasae (IDO) with an N-terminal His tag was expressed in E. coli and purified to homogeneity. IDO catalyzes the oxidative cleavage of the pyrrole ring of the indole nucleus of tryptophan to yield N′-formylkynurenine. The assays were performed at room temperature as described in the literature using 95 nM IDO and 2 mM D-Trp in the presence of 20 mM ascorbate, 5 μM methylene blue and 0.2 mg/mL catalase in 50 mM potassium phosphate buffer (pH 6.5). The initial reaction rates were recorded by continuously following the absorbance increase at 321 nm due to the formation of N′-formlylkynurenine. See: Sono, M., Taniguchi, T., Watanabe, Y., and Hayaishi, O. (1980) J. Biol. Chem. 255, 1339-1345 Compound activity is provided in Table 2 below.

The target of test [2] is T2, indoleamine 2,3-dioxygenase (IDO) in HeLa cells (Homo sapiens, UniProt P14902).
T2 construct: host or cells: HeLa cells, IFN-γ induced
Nature of the test: HeLa cell-based indoleamine 2,3-dioxygenase (IDO)/kynurenine assay. The note with it: IFN-γ 50 ng/mL, 48 hours incubation, kynurenine at 480 nm. As for the experimental part: HeLa cells (#CCL-2) can be obtained from the American Type Tissue Culture Collection (ATCC, Manassas, Va.) and routinely maintained in minimum essential medium (eagle) with 2 mM L-glutamine and Earle's BSS adjusted to contain 1.5 g/L sodium bicarbonate, 0.1 mM non-essential amino acids, 1 mM sodium pyruvate and 10% fetal bovine serum (all from Invitrogen). Cells are kept at 37° C. in a humidified incubator supplied with 5% CO2. The assay is performed as follows: HeLa cells are seeded in a 96 well culture plate at a density of 5×10^3 per well and grown overnight. On the next day, IFN-γ (50 ng/mL final concentration) and serial dilutions of compounds (in total volume of 200 μL culture medium) are added into cells. After 48 hours of incubation, 140 μL of the supernatant per well is transferred to a new 96 well plate. 10 μL of 6.1 N trichloroacetic acid (#T0699, Sigma) is mixed into each well and incubated at 50° C. for 30 min to hydrolyze N-formylkynurenine produced by indoleamine 2,3-dioxygenase to kynurenine. […] The yellow color derived from Kynurenine is measured at 480 nm using a SPECTRAmax 250 microplate reader (Molecular Devices). […] The percent inhibition at individual concentrations is determined and the average values of duplicates are obtained. The data is analyzed by using nonlinear regression to generate IC50 values (Prism Graphpad). […]

In a further test the test system is LLC tumors. As to conditions: LLC tumors in C57B1/6 mice, versus placebo (Friberg, M., et al); cited from earlier work.
The next test concerns P815 tumor. As to conditions: pre-immunized immune-competent mice, IDO-expressing tumors (Uyttenhove, C., et al); cited from earlier work.

In general, IC50 refers to the concentration at which inhibition is half-maximal.

T1 sequence (P14902 whole entry): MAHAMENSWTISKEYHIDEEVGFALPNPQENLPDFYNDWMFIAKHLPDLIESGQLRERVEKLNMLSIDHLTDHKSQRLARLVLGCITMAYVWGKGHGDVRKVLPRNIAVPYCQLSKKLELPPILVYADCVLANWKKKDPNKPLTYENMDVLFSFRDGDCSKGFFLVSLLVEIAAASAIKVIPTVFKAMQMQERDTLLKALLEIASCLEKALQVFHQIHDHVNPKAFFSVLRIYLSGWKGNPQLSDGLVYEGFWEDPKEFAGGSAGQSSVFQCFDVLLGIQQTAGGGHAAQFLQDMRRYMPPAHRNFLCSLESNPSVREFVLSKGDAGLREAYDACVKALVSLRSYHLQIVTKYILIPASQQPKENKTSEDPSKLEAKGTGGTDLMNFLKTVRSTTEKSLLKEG
T2 sequence (P14902 whole entry): as above

For `Cc1ccc(Cl)cc1CNC(=NO)c1nonc1CO` [Example 1, N-(5-chloro-2-methylbenzyl)-N′-hydroxy-4-(hydroxymethyl)-1,2,5-oxadiazole-3-carboximidamide], the values for the IC50 in test [1] and in test [2] were less than 1000 nM and less than 500 nM, respectively. As to `Cn1cc(C[C@H](N)C(=O)O)c2ccccc21` [Example 1-MT, 1-methyl-tryptophan], in the test with LLC tumors, the formation of tumors entry was “markedly delayed”. Besides, the growth of tumors result in the test on P815 tumor was “inhibited”. In test [1], `Cc1ccc(C)c(CNC(=NO)c2nonc2CO)c1` [Example 4] displayed an IC50 of less than 5000 nM. Consider `OCc1nonc1C(=NO)NCc1cc(Br)ccc1F` [Example 3], for which the IC50 in test [1] was less than 1000 nM; in test [2] it was less than 500 nM.

As to `OCc1nonc1C(=NO)NCc1cc(Cl)ccc1Cl` [Example 2], the IC50 in test [1] was less than 5000 nM.
